Data taken from PMC6591251, “Discovery of potent necroptosis inhibitors targeting RIPK1 kinase activity for the treatment of inflammatory disorder and cancer metastasis” (Cell Death & Disease, 2019).

How the values were obtained:
Type in all cases: biochemical
TNIK = TNIK (Homo sapiens, UniProt Q9UKE5); experiment: Kinase activity assay at a CRO; settings: CRO company
Method: (§1) Further, we evaluated the selectivity of PK68 against a panel of 369 kinases provided by Reaction Biology (at 1000 nM). […] In addition, we followed on some of the active “hits” from the kinome scan. PK68 was tested against TNIK and TRKA by a reputable CRO company. […] RIPK1 is known to mediate NF-κB activation independently of its kinase activity. […] It has been shown that homodimerization of RIPK3 or MLKL induced by the dimerizer leads to necroptosis bypassing the upstream signals[10],[37]. […] This dimerized RIPK3-induced necroptosis was blocked by RIPK3 inhibitor GSK873 but was not blocked by the RIPK1 inhibitor necrostatin-1. […] (Fig. 4e).
(§2) Supplementary Figure 20. The kinase activity assays of PK68 in TNIK and TRKA in vitro, Staurosporine as control.
(§3) (A) The IC50 values were obtained by increasing concentrations of PK68 and Staurosporine in TNIK. (B) The IC50 values were obtained by increasing concentrations of PK68 and Staurosporine in TRKA.

TRKA = TRKA (Homo sapiens, UniProt P04629); experiment: Kinase activity assay at a CRO; settings: CRO company
Method: as §1, §2, §3

FAK/PTK2 = target: T1, FAK/PTK2 (Homo sapiens, UniProt Q05397); experiment: RBC kinase panel; settings: ATP 10 μM, Data1, Data2
T1 construct: purchased Reaction Biology Corporation
How it was run: (§4)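 Profiling covered 369 human kinases, each assayed in duplicate with the compound present at 1 μM and ATP at 10 μM.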

PDGFRa = target: T2, PDGFRa (Homo sapiens, UniProt P16234); experiment: RBC kinase panel; settings: ATP 10 μM, Data1, Data2
T2 construct: purchased Reaction Biology Corporation
How it was run: as §4

PASK = target: T3, PASK (Homo sapiens, UniProt Q96RG2); experiment: RBC kinase panel; settings: ATP 10 μM, Data1, Data2
T3 construct: purchased Reaction Biology Corporation
How it was run: as §4

MNK1 = target: T4, MNK1 (Homo sapiens, UniProt Q9BUB5); experiment: RBC kinase panel; settings: ATP 10 μM, Data1, Data2
T4 construct: purchased Reaction Biology Corporation
T4 sequence (Q9BUB5 whole entry): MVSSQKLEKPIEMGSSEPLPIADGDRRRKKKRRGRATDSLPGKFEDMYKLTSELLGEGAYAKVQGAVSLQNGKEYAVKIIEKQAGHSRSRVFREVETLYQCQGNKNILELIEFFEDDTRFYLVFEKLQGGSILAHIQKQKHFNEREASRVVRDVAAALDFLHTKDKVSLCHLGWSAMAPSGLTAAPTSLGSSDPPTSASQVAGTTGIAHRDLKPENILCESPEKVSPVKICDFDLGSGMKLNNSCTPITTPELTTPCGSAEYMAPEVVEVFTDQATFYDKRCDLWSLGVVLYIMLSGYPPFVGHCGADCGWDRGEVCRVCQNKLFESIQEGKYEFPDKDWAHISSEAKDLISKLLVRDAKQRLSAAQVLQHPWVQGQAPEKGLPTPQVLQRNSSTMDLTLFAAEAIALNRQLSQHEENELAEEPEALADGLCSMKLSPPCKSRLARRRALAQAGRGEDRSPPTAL
How it was run: as §4

NEK6 = target: T5, NEK6 (Homo sapiens, UniProt Q9HC98); experiment: RBC kinase panel; settings: ATP 10 μM, Data1, Data2
T5 construct: purchased Reaction Biology Corporation
T5 sequence (Q9HC98 whole entry): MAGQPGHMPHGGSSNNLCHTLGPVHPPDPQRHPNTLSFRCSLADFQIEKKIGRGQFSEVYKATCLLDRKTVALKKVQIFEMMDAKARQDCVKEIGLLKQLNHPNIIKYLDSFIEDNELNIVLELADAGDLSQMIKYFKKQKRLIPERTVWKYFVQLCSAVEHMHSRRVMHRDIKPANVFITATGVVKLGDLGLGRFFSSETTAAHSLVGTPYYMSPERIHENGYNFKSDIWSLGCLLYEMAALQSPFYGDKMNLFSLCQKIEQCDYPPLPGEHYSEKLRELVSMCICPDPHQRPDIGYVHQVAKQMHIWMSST
How it was run: as §4

P38a/MAPK14 = target: T6, P38a/MAPK14 (Homo sapiens, UniProt Q16539); experiment: RBC kinase panel; settings: ATP 10 μM, Data1, Data2
T6 construct: purchased Reaction Biology Corporation
How it was run: as §4

VRK2 = target: T7, VRK2 (Homo sapiens, UniProt Q86Y07); experiment: RBC kinase panel; settings: ATP 10 μM, Data1, Data2
T7 construct: purchased Reaction Biology Corporation
How it was run: as §4

p70S6Kb/RPS6KB2 = target: T8, p70S6Kb/RPS6KB2 (Homo sapiens, UniProt Q9UBS0); experiment: RBC kinase panel; settings: ATP 10 μM, Data1, Data2
T8 construct: purchased Reaction Biology Corporation
How it was run: as §4

CAMK1g = target: T9, CAMK1g (Homo sapiens, UniProt Q96NX5); experiment: RBC kinase panel; settings: ATP 10 μM, Data1, Data2
T9 construct: purchased Reaction Biology Corporation
T9 sequence (Q96NX5 whole entry): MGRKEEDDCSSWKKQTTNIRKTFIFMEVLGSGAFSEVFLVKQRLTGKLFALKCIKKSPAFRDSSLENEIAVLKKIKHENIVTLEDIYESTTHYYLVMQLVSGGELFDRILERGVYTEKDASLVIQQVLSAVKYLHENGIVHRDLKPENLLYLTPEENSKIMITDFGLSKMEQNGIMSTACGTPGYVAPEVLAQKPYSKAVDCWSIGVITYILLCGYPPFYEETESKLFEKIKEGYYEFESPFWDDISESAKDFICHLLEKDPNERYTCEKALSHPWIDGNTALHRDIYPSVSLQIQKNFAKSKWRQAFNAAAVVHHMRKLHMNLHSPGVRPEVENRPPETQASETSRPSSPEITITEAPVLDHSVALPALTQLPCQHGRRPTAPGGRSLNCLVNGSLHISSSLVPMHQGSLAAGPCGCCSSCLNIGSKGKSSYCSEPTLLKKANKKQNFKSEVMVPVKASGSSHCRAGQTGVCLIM
How it was run: as §4

DRAK1/STK17A = target: T10, DRAK1/STK17A (Homo sapiens, UniProt Q9UEE5); experiment: RBC kinase panel; settings: ATP 10 μM, Data1, Data2
T10 construct: purchased Reaction Biology Corporation
How it was run: as §4

ARK5/NUAK1 = target: T11, ARK5/NUAK1 (Homo sapiens, UniProt O60285); experiment: RBC kinase panel; settings: ATP 10 μM, Data1, Data2
T11 construct: purchased Reaction Biology Corporation
How it was run: as §4

TESK1 = target: T12, TESK1 (Homo sapiens, UniProt Q15569); experiment: RBC kinase panel; settings: ATP 10 μM, Data1, Data2
T12 construct: purchased Reaction Biology Corporation
How it was run: as §4

ALK5/TGFBR1 = target: T13, ALK5/TGFBR1 (Homo sapiens, UniProt P36897); experiment: RBC kinase panel; settings: ATP 10 μM, Data1, Data2
T13 construct: purchased Reaction Biology Corporation
How it was run: as §4

MAPKAPK5/PRAK = target: T14, MAPKAPK5/PRAK (Homo sapiens, UniProt Q8IW41); experiment: RBC kinase panel; settings: ATP 10 μM, Data1, Data2
T14 construct: purchased Reaction Biology Corporation
T14 sequence (Q8IW41 whole entry): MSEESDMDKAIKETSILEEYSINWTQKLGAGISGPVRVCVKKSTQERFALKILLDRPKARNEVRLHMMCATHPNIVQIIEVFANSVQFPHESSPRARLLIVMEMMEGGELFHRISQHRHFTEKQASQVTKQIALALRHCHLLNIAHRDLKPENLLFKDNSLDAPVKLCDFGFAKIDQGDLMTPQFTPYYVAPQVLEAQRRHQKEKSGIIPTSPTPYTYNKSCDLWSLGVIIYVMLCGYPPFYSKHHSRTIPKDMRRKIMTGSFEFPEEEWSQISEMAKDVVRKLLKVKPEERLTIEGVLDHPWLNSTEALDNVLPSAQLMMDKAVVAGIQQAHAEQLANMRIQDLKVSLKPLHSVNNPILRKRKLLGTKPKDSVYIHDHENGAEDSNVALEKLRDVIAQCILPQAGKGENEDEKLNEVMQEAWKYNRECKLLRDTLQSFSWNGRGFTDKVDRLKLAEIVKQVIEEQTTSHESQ
How it was run: as §4

MSK1/RPS6KA5 = target: T15, MSK1/RPS6KA5 (Homo sapiens, UniProt O75582); experiment: RBC kinase panel; settings: ATP 10 μM, Data1, Data2
T15 construct: purchased Reaction Biology Corporation
How it was run: as §4

MARK1 = target: T16, MARK1 (Homo sapiens, UniProt Q9P0L2); experiment: RBC kinase panel; settings: ATP 10 μM, Data1, Data2
T16 construct: purchased Reaction Biology Corporation
How it was run: as §4

JAK1 = target: T17, JAK1 (Homo sapiens, UniProt P23458); experiment: RBC kinase panel; settings: ATP 10 μM, Data1, Data2
T17 construct: purchased Reaction Biology Corporation
T17 sequence (P23458 whole entry): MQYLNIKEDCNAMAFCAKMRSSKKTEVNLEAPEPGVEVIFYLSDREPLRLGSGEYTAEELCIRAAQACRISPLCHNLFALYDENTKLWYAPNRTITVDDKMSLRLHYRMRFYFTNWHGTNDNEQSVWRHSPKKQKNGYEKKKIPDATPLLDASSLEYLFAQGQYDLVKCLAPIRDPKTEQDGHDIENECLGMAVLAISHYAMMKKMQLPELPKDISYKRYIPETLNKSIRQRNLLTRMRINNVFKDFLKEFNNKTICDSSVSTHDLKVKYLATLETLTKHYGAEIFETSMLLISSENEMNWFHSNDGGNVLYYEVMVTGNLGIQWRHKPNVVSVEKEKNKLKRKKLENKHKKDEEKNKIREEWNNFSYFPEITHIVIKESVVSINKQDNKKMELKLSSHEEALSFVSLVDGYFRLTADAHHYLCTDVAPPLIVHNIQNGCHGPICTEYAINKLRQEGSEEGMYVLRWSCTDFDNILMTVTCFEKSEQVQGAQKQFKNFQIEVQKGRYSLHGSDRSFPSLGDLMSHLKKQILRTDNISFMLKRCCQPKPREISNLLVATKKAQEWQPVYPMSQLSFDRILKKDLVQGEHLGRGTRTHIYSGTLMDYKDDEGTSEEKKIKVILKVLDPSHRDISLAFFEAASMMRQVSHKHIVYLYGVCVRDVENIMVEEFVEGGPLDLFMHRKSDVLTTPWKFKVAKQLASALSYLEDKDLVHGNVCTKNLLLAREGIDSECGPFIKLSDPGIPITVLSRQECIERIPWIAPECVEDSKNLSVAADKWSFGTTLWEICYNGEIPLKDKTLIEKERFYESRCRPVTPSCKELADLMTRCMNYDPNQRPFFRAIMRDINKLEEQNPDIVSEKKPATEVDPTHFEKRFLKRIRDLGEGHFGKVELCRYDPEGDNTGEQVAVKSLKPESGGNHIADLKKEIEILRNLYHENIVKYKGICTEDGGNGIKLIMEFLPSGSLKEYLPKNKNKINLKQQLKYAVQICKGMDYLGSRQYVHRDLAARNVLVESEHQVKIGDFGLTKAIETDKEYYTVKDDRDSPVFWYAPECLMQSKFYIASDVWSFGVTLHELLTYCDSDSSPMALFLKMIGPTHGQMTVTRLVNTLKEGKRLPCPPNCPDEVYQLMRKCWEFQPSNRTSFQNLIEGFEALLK
How it was run: as §4

CK1g1 = target: T18, CK1g1 (Homo sapiens, UniProt Q9HCP0); experiment: RBC kinase panel; settings: ATP 10 μM, Data1, Data2
T18 construct: purchased Reaction Biology Corporation
How it was run: as §4

c-Src = target: T19, c-Src (Homo sapiens, UniProt P12931); experiment: RBC kinase panel; settings: ATP 10 μM, Data1, Data2
T19 construct: purchased Reaction Biology Corporation
T19 sequence (P12931 whole entry): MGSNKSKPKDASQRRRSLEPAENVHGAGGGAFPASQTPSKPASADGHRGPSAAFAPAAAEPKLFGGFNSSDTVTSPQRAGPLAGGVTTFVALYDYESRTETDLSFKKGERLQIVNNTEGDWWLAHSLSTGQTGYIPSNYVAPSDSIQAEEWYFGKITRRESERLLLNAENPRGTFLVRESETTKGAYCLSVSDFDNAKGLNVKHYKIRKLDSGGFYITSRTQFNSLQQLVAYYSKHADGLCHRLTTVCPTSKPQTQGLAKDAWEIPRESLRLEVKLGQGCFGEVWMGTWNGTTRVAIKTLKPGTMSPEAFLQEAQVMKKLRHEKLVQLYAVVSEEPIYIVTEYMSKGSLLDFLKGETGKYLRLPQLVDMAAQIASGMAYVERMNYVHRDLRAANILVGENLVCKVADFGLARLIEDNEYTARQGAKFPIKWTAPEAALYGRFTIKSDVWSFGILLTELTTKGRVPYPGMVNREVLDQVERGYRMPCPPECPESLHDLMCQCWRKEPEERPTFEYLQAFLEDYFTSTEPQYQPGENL
How it was run: as §4

GSK3a = target: T20, GSK3a (Homo sapiens, UniProt P49840); experiment: RBC kinase panel; settings: ATP 10 μM, Data1, Data2
T20 construct: purchased Reaction Biology Corporation
How it was run: as §4

GRK4 = target: T21, GRK4 (Homo sapiens, UniProt P32298); experiment: RBC kinase panel; settings: ATP 10 μM, Data1, Data2
T21 construct: purchased Reaction Biology Corporation
How it was run: as §4

TSSK2 = target: T22, TSSK2 (Homo sapiens, UniProt Q96PF2); experiment: RBC kinase panel; settings: ATP 10 μM, Data1, Data2
T22 construct: purchased Reaction Biology Corporation
T22 sequence (Q96PF2 whole entry): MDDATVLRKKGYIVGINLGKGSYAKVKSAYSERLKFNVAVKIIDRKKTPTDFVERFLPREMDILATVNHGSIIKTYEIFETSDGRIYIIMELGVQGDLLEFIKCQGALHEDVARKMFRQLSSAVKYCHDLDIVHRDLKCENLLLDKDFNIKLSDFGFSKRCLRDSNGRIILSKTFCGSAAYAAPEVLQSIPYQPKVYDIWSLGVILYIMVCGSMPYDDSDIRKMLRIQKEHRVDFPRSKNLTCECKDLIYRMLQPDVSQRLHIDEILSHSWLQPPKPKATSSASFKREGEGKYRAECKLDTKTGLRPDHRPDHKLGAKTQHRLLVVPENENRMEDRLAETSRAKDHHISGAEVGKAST
How it was run: as §4

MEK3 = target: T23, MEK3 (Homo sapiens, UniProt P46734); experiment: RBC kinase panel; settings: ATP 10 μM, Data1, Data2
T23 construct: purchased Reaction Biology Corporation
T23 sequence (P46734 whole entry): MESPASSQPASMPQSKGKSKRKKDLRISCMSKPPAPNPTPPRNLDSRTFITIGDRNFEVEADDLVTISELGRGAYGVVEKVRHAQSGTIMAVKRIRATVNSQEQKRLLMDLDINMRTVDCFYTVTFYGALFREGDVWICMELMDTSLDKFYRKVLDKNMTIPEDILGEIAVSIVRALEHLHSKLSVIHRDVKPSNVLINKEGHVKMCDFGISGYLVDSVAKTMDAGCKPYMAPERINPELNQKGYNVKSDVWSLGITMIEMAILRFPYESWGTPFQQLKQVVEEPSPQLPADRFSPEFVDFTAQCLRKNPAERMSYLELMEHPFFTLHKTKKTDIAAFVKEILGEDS
How it was run: as §4

PKCb1 = target: T24, PKCb1 (Homo sapiens, UniProt P05771); experiment: RBC kinase panel; settings: ATP 10 μM, Data1, Data2
T24 construct: purchased Reaction Biology Corporation
How it was run: as §4

MEKK3 = target: T25, MEKK3 (Homo sapiens, UniProt Q99759); experiment: RBC kinase panel; settings: ATP 10 μM, Data1, Data2
T25 construct: purchased Reaction Biology Corporation
T25 sequence (Q99759 whole entry): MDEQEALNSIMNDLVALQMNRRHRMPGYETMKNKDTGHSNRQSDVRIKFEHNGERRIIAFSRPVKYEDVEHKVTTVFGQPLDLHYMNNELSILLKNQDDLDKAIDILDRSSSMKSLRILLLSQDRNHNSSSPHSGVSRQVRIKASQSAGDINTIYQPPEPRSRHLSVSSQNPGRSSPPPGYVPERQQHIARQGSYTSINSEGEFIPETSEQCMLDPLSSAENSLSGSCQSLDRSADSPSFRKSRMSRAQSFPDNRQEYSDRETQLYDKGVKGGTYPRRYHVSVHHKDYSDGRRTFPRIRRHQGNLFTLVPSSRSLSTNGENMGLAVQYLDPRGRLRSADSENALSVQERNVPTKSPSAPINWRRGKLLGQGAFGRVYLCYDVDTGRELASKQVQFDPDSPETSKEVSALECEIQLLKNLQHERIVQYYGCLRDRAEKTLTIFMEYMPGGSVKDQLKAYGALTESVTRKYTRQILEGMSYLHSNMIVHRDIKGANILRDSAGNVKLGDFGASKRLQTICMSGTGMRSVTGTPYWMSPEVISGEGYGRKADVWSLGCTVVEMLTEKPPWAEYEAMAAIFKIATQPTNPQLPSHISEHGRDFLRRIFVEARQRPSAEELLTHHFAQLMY
How it was run: as §4

CC(=O)Nc1nc2ccc(-c3cnc(C)c(NC(=O)OC4CCCCC4)c3)cc2s1 [PK68, cyclohexyl (5-(2-acetamidobenzo[d]thiazol-6-yl)-2-methylpyridin-3-yl)carbamate]
IC50 (TNIK): ~10 µM | IC50 (TRKA): ~10 µM | Activity% (FAK/PTK2; 1 μM): 96.95% | activity at 1 µM (FAK/PTK2): 98% | Activity% (PDGFRa; 1 μM): 83.70% | activity at 1 µM (PDGFRa): 84.1% | Activity% (PASK; 1 μM): 91.47% | activity at 1 µM (PASK): 93% | Activity% (MNK1; 1 μM): 99.13% | activity at 1 µM (MNK1): 100% | Activity% (NEK6; 1 μM): 93.63% | activity at 1 µM (NEK6): 98.4% | Activity% (P38a/MAPK14; 1 μM): 102.59% | activity at 1 µM (P38a/MAPK14): 106% | Activity% (VRK2; 1 μM): 93.34% | activity at 1 µM (VRK2): 94.4% | Activity% (p70S6Kb/RPS6KB2; 1 μM): 95.50% | activity at 1 µM (p70S6Kb/RPS6KB2): 98.8% | Activity% (CAMK1g; 1 μM): 92.94% | activity at 1 µM (CAMK1g): 93% | Activity% (DRAK1/STK17A; 1 μM): 90.72% | activity at 1 µM (DRAK1/STK17A): 91.3% | Activity% (ARK5/NUAK1; 1 μM): 98.37% | activity at 1 µM (ARK5/NUAK1): 99.4% | Activity% (TESK1; 1 μM): 111.93% | activity at 1 µM (TESK1): 118% | Activity% (ALK5/TGFBR1; 1 μM): 94.67% | activity at 1 µM (ALK5/TGFBR1): 95.1% | Activity% (MAPKAPK5/PRAK; 1 μM): 97.02% | activity at 1 µM (MAPKAPK5/PRAK): 97% | Activity% (MSK1/RPS6KA5; 1 μM): 93.86% | activity at 1 µM (MSK1/RPS6KA5): 94% | Activity% (MARK1; 1 μM): 96.33% | activity at 1 µM (MARK1): 97% | Activity% (JAK1; 1 μM): 99.20% | activity at 1 µM (JAK1): 99.5% | Activity% (CK1g1; 1 μM): 89.50% | activity at 1 µM (CK1g1): 90.7% | Activity% (c-Src; 1 μM): 95.17% | activity at 1 µM (c-Src): 96.3% | Activity% (GSK3a; 1 μM): 101.33% | activity at 1 µM (GSK3a): 102% | Activity% (GRK4; 1 μM): 103.31% | activity at 1 µM (GRK4): 107% | Activity% (TSSK2; 1 μM): 97.17% | activity at 1 µM (TSSK2): 98.1% | Activity% (MEK3; 1 μM): 99.61% | activity at 1 µM (MEK3): 99.7% | Activity% (PKCb1; 1 μM): 84.55% | activity at 1 µM (PKCb1): 84.8% | Activity% (MEKK3; 1 μM): 111.45% | activity at 1 µM (MEKK3): 115%
